Experimental data as given in patent US7947854B2, “Bis-cationic compounds and use thereof” (The University of Sydney, priority 2003, dated 2011).
“And” between values parts separate entries of the source, which are not always exact repeats. Equal values may be shown once. Marks after values point to notes of the source that are not given here.

Tests used:
[1] = system: two strains of C. neoformans and one strain of Candida albicans; experiment: Standardised serial dilution sensitivity test, results stated over all strains; assay type: cell-based
Method: Antifungal susceptibility testing. The antifingal activity of the compounds was measured by a standard microdilution method. […] The fungal strains tested included Cryptococcus neoformans H99, Cryptococcus neoformans ATCC 90112 and Candida albicans ATCC 10231. All tests were performed in duplicate.

[2] = system: Scedosporium apiospermum 1-003-056; experiment: In vitro antifungal activity, filamentous fungi, NCCLS M38-A; assay type: cell-based; conditions: Scedosporium apiospermum, 1003056
Source text: (§1) The assay used for filamentous fungi (Aspergillus; Scedosporium; Fusarium) was that published by the National Committee for Clinical Laboratory Standards. 2002. Reference Method for Broth Dilution Antifungal Susceptibility Testing of Filamentous Fungi: Approved Standard. NCCLS document M38-A.Villanova, Pa., USA.

[3] = system: Aspergillus terreus ATCC 03-232-378; experiment: as above; assay type: cell-based; conditions: Aspergillus terreus, ATCC03
Source text: as §1

[4] = system: Aspergillus fumigatus ATCC 204 305; experiment: as above; assay type: cell-based; conditions: Aspergillus fumigatus, ATCC204
Source text: as §1

[5] = system: Scedosporium prolificans 1-003-040; experiment: as above; assay type: cell-based; conditions: Lomentospora prolificans, 1003040
Source text: as §1

[6] = system: Aspergillus flavus ATCC 204 304; experiment: as above; assay type: cell-based; conditions: Aspergillus flavus, ATCC204
Source text: as §1

[7] = system: Fusarium solani 04-132-4207; experiment: as above; assay type: cell-based; conditions: Fusarium solani, 041324207
Source text: as §1

[8] = system: MRSA (methicillin resistant S. aureus); experiment: In vitro antibacterial activity, NCCLS M7-A6; assay type: cell-based; conditions: Staphylococcus aureus, read-out: MIC MRSA (methicillin resistant S. aureus)
Method: (§2) Two bis-cationic compounds were tested for antibacterial activity. The assay used was that published by the National Committee for Clinical Laboratory Standards. 2003. Methods for Dilution Antimicrobial Susceptibility Tests for Bacteria That Grow Aerobically: Approved Standard—Sixth Edition. NCCLS document M7-A6. Villanova, Pa., USA.

[9] = system: VRE (Vancomycin resistant Enterococcus); experiment: In vitro antibacterial activity, NCCLS M7-A6; assay type: cell-based
Method: as §2

[10] = system: Staphylococcus aureus 25923; experiment: In vitro antibacterial activity, NCCLS M7-A6; assay type: cell-based
Method: as §2

Escherichia coli 25922 = experiment: In vitro antibacterial activity, NCCLS M7-A6; assay type: cell-based
Method: as §2

[11] = system: Pseudomonas ariginosa 122; experiment: In vitro antibacterial activity, NCCLS M7-A6; assay type: cell-based
Method: as §2

[12] = system: Streptococcus pneumonia 49619; experiment: In vitro antibacterial activity, NCCLS M7-A6; assay type: cell-based; conditions: Streptococcus pneumoniae
Method: as §2

[13] = system: cytosolic phospholipase B (PLB activity); experiment: Radiometric assay, cytosolic PLB activity; assay type: biochemical, Cryptococcus neoformans H99; conditions: pH 4
Method: Fungal isolates and media. […] Isolate H99 was kindly supplied by Dr. Gary Cox (Duke University Medical Center, Durham, N.C., USA), and subcultured onto Sabouraud dextrose agar (SDA) at 30° C.
Cellular disruption to prepare membrane and cytosolic fractions. The cell pellet from the preparation of the supernatant, above, was also frozen at −70° C. After washing twice with imidazole buffer, it was disrupted in the presence of a protease inhibitor cocktail (P 8215 for fungal and yeast cells; 4-(2-aminoethyl)benzenesulfonyl fluoride hydrochloride, 100 mM, 1,10-phenanthroline, 500 mM, pepstatin A, 2.2 mM, E-64, 1.4 mM; Sigma) in a MiniBeadbeater-8 Cell Disrupter (MBB-8; Daintree Scientific, Tasmania, Australia) for three cycles of 1 min, alternating with a 1 min cooling period on ice. The homogenate was centrifuged at 14,000 g for 15 min to obtain the membrane (pellet) and the cytosolic (supernatant) fractions.
Radiometric assay method for phospholipases. Enzyme activities were measured as described previously in a final volume of 125 μL at 37° C. For the determination of secreted PLB activity, carrier dipalmitoyl phosphatidylcholine (DPPC, final concentration 800 μM) and 1,2-di[1-^14C] palmitoyl phosphatidylcholine (20,000 dpm) were dried under nitrogen and suspended in 125 mM imidazole acetate buffer (assay buffer, pH 4.0) by sonication using a Branson 450 sonifier. The reaction time was 22 min, using 1 μg total protein and PLB activity was determined by the rate of decrease of the radiolabelled PC substrate, with appearance of the label in free fatty acid. This assay also simultaneously allows for the determination of phospholipase A, C and D activities. These activities were measured by the appearance of radiolabel from PC in Lyso PC, diacylglycerol and phosphatidic acid, respectively.
All reactions were terminated by adding 0.5 mL of chloroform:methanol (2:1 v/v). The reaction products were extracted by the method as disclosed in Bligh, E. C. and W. J. Dyer. 1959 ‘A rapid method of total lipid extraction and purification.’ Can. J. Biochem. Physiol. 37:911-917, separated by TLC and quantified as previously described. In the case of PLC activity, the TLC plates were developed in petroleum ether (BP 60-80° C.): diethyl ether: acetic acid (90:15:1, v/v/v) instead of chloroform:methanol:water (65:25:4, v/v/v).
All experiments were carried out in duplicate or triplicate. The effects of pH on the various phospholipase activities were measured using 50 mM final concentration of imidazole-acetate buffer (pH range 3-5), MES buffer (pH range 6-8) and glycine buffer (pH 9-10). Controls for non-enzymic breakdown of substrates were included at all pH values. Cations, Triton X-100 and metal chelators were made up as stock solutions in water and diluted to the final concentration in the appropriate assay buffer.
Preparation of inhibitors and use in assays. The following compounds were tested (for structures, see FIG. 2): compound 1, 1,12-bis(tributylphosphonium)dodecane dibromide (Fluka AG, Buchs, Switzerland); compound 2, 1,10-bis(tributylammonium)-decane dibromide; compound 3, 1,12-bis(tributylammonium)do-decane dibromide (both synthesised in-house); compound 4, 1,10-bis(trimethylammonium)decane dibromide [“decamethonium”] (Sigma, St. Louis Mo., USA). All compounds were prepared as stock solutions of 700 μM in assay buffer containing 5 mM EDTA, which was then diluted serially with buffer to obtain solutions of 70, 7, 0.7 and 0.07 μM. In each assay, 45 μL of these solutions was used, and the final volume of 125 μL was made up of substrate, enzyme and buffer. The radiometric assay was carried out as above.

**Q.** With `CCCC[N+](CCCC)(CCCC)CCCCCCCCCCCC[N+](CCCC)(CCCC)CCCC` [Compound 3, 1,12-bis(tributylammonium)do-decane dibromide] as the compound, how does the “antifungal / fungicidal activity, in words” value [1] read?
**A.** The value was “fungicidal activity”.

**Q.** Which MIC [2] does the source give for `CCCC[N+](CCCC)(CCCC)CCCCCCCCCCCC[N+](CCCC)(CCCC)CCCC` [1,12-Bis-(tributylammonium)dodecane dichloride] here?
**A.** Its MIC is 1.7 µg/mL and 2.8 µM.

**Q.** What about the MIC [3] of the same compound?
**A.** The MIC was 3.3 µg/mL and 5.5 µM.

**Q.** And the MIC [4]?
**A.** Its MIC is 6.7 µg/mL and 11 µM.

**Q.** And the MIC [5]?
**A.** The MIC was 3.3 µg/mL and 5.5 µM.

**Q.** What about the MIC [6] of the same compound?
**A.** The MIC was 13.4 µg/mL and 22 µM.

**Q.** What about the MIC [7] of the same compound?
**A.** The MIC was 3.3 µg/mL and 5.5 µM.

**Q.** And the MIC [8]?
**A.** Its MIC is 3.3 µg/mL and 5.5 µM.

**Q.** And the MIC [9]?
**A.** Its MIC is 1.6 µg/mL and 2.7 µM.

**Q.** What about the MIC [10] of the same compound?
**A.** The MIC was 3.3 µg/mL and 5.5 µM.

**Q.** And the MIC (Escherichia coli 25922)?
**A.** The MIC was 13.4 µg/mL and 22 µM.

**Q.** What about the MIC [11] of the same compound?
**A.** Its MIC is 48 µg/mL and 80 µM.

**Q.** And the MIC [12]?
**A.** Its MIC is 0.73 µg/mL and 1.2 µM.

**Q.** How did the “% Inhibition PLB, Cytosolic Enzyme” value ([13]; 2.5 μM) turn out when `CCCC[P+](CCCC)(CCCC)CCCCCCCCCCCC[P+](CCCC)(CCCC)CCCC` [Compound 1, 1,12-bis(tributylphosphonium)dodecane dibromide] was run?
**A.** The value was 0%.

**Q.** What about the “% Inhibition PLB, Cytosolic Enzyme” value ([13]; 25 μM) of the same compound?
**A.** The value was 0%.

**Q.** What about the “% Inhibition PLB, Cytosolic Enzyme” value ([13]; 250 μM) of the same compound?
**A.** Its value is 41.3* %.
